According to patent publication US20230365537A1, “POLO LIKE KINASE 4 INHIBITORS” (ORIC Pharmaceuticals, Inc., priority 2021, published 2023):

Experiments:
[1] = biological target: human recombinant PLK4 (Homo sapiens (Human), UniProt O00444); test: PLK4 Biochemical Assay (ADP-Glo); conditions: 0.5 nM PLK4, 8.0 µM ATP, 4.7 µM MBP, 6 hours at RT
How it was run: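 Recombinant human PLK4 (added at 1.0 nM) was preincubated 15 min at RT with compound in 50 mM HEPES pH 7.5, 10 mM MgCl2, 1 mM EGTA, 1 mM DTT, 0.01% Brij-35, 0.01% BSA. ADP formed was detected by ADP-Glo luminescence (40 min ATP depletion, 30 min detection). IC50 came from a four-parameter fit.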

[2] = biological target: human recombinant Aurora B (Homo sapiens (Human), UniProt Q96GD4); test: Aurora B Kinase Biochemical Assay (ADP-Glo); conditions: ratio of Aurora B IC50 to PLK4 IC50 (selectivity)
Chain of human recombinant Aurora B (Q96GD4 whole entry): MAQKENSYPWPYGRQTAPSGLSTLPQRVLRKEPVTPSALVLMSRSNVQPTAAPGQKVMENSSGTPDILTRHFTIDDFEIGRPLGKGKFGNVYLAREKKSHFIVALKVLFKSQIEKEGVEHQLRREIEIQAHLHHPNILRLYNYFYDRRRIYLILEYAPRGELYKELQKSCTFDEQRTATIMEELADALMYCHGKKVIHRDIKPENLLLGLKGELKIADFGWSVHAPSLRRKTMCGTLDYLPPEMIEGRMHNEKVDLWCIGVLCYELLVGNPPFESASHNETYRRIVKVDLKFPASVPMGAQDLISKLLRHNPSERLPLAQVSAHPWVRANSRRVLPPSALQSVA
How it was run: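 Recombinant human Aurora B (20 nM in pH 7.5 HEPES buffer with MgCl2, EGTA, DTT, Brij-35, BSA) preincubated with compound 15 min at RT. ADP formed quantified by ADP-Glo luminescence after ATP depletion (40 min) and detection (30 min). IC50 from four-parameter non-linear regression.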

[3] = biological target: human recombinant Aurora A (Homo sapiens (Human), UniProt O14965); test: Aurora A Kinase Biochemical Assay (ADP-Glo); conditions: ratio of Aurora A IC50 to PLK4 IC50 (selectivity)
Chain of human recombinant Aurora A (O14965 whole entry): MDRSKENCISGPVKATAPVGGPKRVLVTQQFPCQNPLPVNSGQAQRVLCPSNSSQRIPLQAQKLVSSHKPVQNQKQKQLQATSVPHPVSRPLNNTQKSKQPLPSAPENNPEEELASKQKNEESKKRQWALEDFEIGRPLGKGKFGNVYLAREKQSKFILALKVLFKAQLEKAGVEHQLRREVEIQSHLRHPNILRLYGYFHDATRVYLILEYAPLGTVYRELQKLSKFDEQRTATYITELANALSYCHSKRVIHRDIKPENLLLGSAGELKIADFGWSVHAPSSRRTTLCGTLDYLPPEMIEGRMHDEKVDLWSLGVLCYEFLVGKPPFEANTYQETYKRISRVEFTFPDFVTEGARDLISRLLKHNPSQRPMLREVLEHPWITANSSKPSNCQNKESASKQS

Chain of human recombinant PLK4 (O00444 whole entry): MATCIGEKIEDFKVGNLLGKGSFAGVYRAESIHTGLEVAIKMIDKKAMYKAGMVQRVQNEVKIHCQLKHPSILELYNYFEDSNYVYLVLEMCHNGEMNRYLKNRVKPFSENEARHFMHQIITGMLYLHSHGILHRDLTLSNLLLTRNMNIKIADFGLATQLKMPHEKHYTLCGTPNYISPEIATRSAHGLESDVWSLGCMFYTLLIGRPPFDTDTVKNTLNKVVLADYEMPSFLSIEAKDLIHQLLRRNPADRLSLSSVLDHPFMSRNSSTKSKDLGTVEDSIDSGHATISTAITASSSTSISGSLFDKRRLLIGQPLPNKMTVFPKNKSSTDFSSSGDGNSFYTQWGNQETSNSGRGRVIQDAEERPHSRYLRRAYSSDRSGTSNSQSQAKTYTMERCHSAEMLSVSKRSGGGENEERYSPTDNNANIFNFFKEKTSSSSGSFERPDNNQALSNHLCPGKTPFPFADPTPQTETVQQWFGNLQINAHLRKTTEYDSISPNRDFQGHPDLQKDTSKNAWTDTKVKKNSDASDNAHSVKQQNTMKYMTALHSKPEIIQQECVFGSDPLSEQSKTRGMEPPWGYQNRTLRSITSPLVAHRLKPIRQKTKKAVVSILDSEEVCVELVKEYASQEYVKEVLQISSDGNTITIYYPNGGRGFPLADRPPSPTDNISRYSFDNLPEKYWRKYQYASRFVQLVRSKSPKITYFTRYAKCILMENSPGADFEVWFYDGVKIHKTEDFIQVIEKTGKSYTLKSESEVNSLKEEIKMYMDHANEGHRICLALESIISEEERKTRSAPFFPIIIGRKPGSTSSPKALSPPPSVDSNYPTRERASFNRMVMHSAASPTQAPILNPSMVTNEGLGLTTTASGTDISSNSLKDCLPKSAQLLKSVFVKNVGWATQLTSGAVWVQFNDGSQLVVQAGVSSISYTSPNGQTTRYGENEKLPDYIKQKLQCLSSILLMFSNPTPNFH

| IC50 [1] [nM] | [Aurora B IC50 (nM)]/[PLK4 IC50 (nM)] [2] | [Aurora A IC50 (nM)]/[PLK4 IC50 (nM)] [3] | Compound |
| --- | --- | --- | --- |
| 8.39 | 105.2895 | 648.6776 | COc1ccc2c(c1)[C@]1(C[C@H]1c1ccc3c(Nc4nc(C)ncc4SC)n[nH]c3c1)C(=O)N2 [Example 162, (1R,2S)-5′-methoxy-2-(3-{[2-methyl-5-(methylsulfanyl)pyrimidin-4-yl]amino}-1H-indazol-6-yl)spiro[cyclopropane-1,3′-indol]-2′(1′H)-one] |
| 7.58 | 3693.2418 | 2415.5227 | COc1ccc2c(c1)[C@]1(C[C@H]1c1ccc3c(Nc4cc(C(=O)N(C)C)cnc4OC)n[nH]c3c1)C(=O)N2 [Example 181, 6-methoxy-5-({6-[(1R,2S)-5′-methoxy-2′-oxo-1′,2′-dihydrospiro[cyclopropane-1,3′-indol]-2-yl]-1H-indazol-3-yl}amino)-N,N-dimethylpyridine-3-carboxamide] |
| 4.45 | 198.8774 | 53.6821 | COc1ccc2c(c1)[C@]1(C[C@H]1c1ccc3c(Nc4nc(N(C)C)ncc4C)n[nH]c3c1)C(=O)N2 [Example 182, (1R,2S)-2-(3-{[2-(dimethylamino)-5-methylpyrimidin-4-yl]amino}-1H-indazol-6-yl)-5′-methoxyspiro[cyclopropane-1,3′-indol]-2′(1′H)-one] |
| 0.806 | 80.2233 | 618.8586 | COc1ccc2c(c1)[C@]1(C[C@H]1c1ccc3c(Nc4cc(F)c(C(=O)N(C)C)cc4OC)n[nH]c3c1)C(=O)N2 [Example 206, 2-fluoro-5-methoxy-4-({6-[(1R,2S)-5′-methoxy-2′-oxo-1’,2′-dihydrospiro[cyclopropane-1,3′-indol]-2-yl]-1H-indazol-3-yl}amino)-N,N-dimethylbenzamide] |
| 0.952 | 111.6597 | 497.3739 | COc1ccc2c(c1)[C@]1(C[C@H]1c1ccc3c(Nc4cc(F)c(C(=O)N5CCOCC5)cc4OC)n[nH]c3c1)C(=O)N2 [Example 207, (1R,2S)-2-{3-[5-fluoro-2-methoxy-4-(morpholine-4-carbonyl)anilino]-1H-indazol-6-yl}-5′-methoxyspiro[cyclopropane-1,3′-indol]-2′(1′H)-one] |
| 6.01 | 498.7527 | 1042.4081 | COc1ccc2c(c1)[C@]1(C[C@H]1c1ccc3c(Nc4cc(N5CCCC5=O)cnc4OC)n[nH]c3c1)C(=O)N2 [Example 220, (1R,2S)-5′-methoxy-2-(3-{[2-methoxy-5-(2-oxopyrrolidin-1-yl)pyridin-3-yl]amino}-1H-indazol-6-yl)spiro[cyclopropane-1,3′-indol]-2′(1′H)-one] |
| 7.85 | 130.8780 | 1669.4278 | COc1ccc2c(c1)[C@]1(C[C@H]1c1ccc3c(Nc4ncc(P(C)(C)=O)nc4OC)n[nH]c3c1)C(=O)N2 [Example 229, (1R,2S)-2-(3-{[5-(dimethylphosphoryl)-3-methoxypyrazin-2-yl]amino}-1H-indazol-6-yl)-5′-methoxyspiro[cyclopropane-1,3′-indol]-2′(1′H)-one] |
| 2.17 | 260.3503 | 2053.4808 | COc1ccc2c(c1)[C@]1(C[C@H]1c1ccc3c(Nc4ncc(C(=O)N5CC(OC)C5)cc4OC)n[nH]c3c1)C(=O)N2 [Example 235, (1R,2S)-5′-methoxy-2-(3-{[3-methoxy-5-(3-methoxyazetidine-1-carbonyl)pyridm-2-yl]amino}-1H-indazol-6-yl)spiro[cyclopropane-1,3′-indol]-2′(1′H)-one] |
